Measurements reported in article PMC9865752, “Design and Synthesis of (Z)-2-(Benzylamino)-5-benzylidenethiazol-4(5H)-one Derivatives as Tyrosinase Inhibitors and Their Anti-Melanogenic and Antioxidant Effects” (Molecules, 2023).

Tests used:
B16F10 cells = assay: Measurement of extracellular and intracellular melanin levels; format: cell-based, murine; conditions: α-MSH plus IBMX stimulated B16F10 cells, 72 h
Protocol: To investigate the effects of derivative 8 on extracellular and intracellular melanin levels in B16F10 cells, the cells were treated with various concentrations (5, 10, and 20 µM) of derivative 8 for 1 h, in addition to co-treatment with α-MSH (0.5 µM) and 3-isobutyl-1-methylxanthine (IBMX; 200 µM) to enhance melanin biosynthesis in B16F10 cells. After 72 h of incubation, the effects of 8 on extracellular and intracellular melanin levels were determined by measuring the melanin absorbance in the culture media and cell lysates, respectively, at 405 nm using a microplate reader.
The effect of 8 on melanin production was measured using a standard melanin content assay, with minor modifications. Briefly, B16F10 cells were seeded at a density of 1 × 10^5 cells per well and allowed to adhere to the well bottoms for 24 h under the conditions used for cell cultures. […] After incubation for 72 h at 37 °C in a 5% CO2 atmosphere, melanin levels were determined. To measure the extracellular melanin levels, the absorbance of each well of the culture medium was measured at 405 nm. […] Cultured cells were washed twice with PBS, and the pellets obtained were dissolved using 1 N NaOH solution (200 µL, 10% DMSO) at 60 °C for 1 h. Cell lysates were transferred to the wells of a 96-well plate, and the optical density of melanin dissolved in each well was measured at 405 nm in aqueous DMSO solution using a microplate reader (VersaMax; Molecular Devices).

[1] = Peroxynitrite scavenging assay; conditions: 20 µM; SIN-1 as generator; DHR123 probe
Protocol: The effects of the BABT derivatives on peroxynitrite scavenging activities were also examined using SIN-1 as an RNS generator and dihydrorhodamine (DHR123) as an ROS indicator. DHR123 was converted to fluorescent rhodamine 123 by peroxynitrite generated by SIN-1. Therefore, the peroxynitrite scavenging activities of 1–14 were assessed by measuring the fluorescence of rhodamine 123. BABT derivatives and penicillamine, the positive control, were used at a concentration of 20 µM.
The peroxynitrite scavenging activities of the BABT derivatives were assessed using the method developed by Kooy, involving the monitoring of highly fluorescent rhodamine 123, which was rapidly produced from non-fluorescent DHR123 in the presence of peroxynitrite. Rhodamine buffer (pH 7.4) was composed of 50 mM sodium phosphate dibasic, 50 mM sodium phosphate monobasic, 90 mM sodium chloride, 5 mM potassium chloride, and 100 µM DTPA. A 10 µL aliquot of BABT derivatives or PCA (final concentration: 20 µM) was seeded in a black 96-well plate. Then, 10 µL of SIN-1 (10 µM) was added to induce radical species generation and mixed with 180 µL of rhodamine buffer. Fluorescence intensity was measured at emission and excitation wavelengths of 535 and 485 nm, respectively, using a fluorescence microplate reader (Berthold Technologies GmbH & Co.). PCA was used as the positive control.

## O=C1N=C(NCc2ccccc2)S/C1=C\c1ccc(O)cc1O [Compound 8, (Z)-2-(benzylamino)-5-(2,4-dihydroxybenzylidene)thiazol-4(5H)-one]
B16F10 cells; 5 µM
  extracellular melanin levels compared to untreated control: 1.22 fold
  intracellular melanin levels (in words): more potent inhibitory activity on melanin production than kojic acid at 20 µM
B16F10 cells; 10 µM
  extracellular melanin levels compared to untreated control: 1.03 fold
B16F10 cells; 20 µM
  extracellular melanin levels compared to untreated control: 1.00 fold
  intracellular melanin levels (in words): lower than those in the untreated control
[1]
  peroxynitrite scavenging activity (in words): scavenged peroxynitrite more potently than did penicillamine
